According to US9290453B2 (Merck Sharp & Dohme Corp., priority 2010, dated 2016):

biological target: T1, hCRTH2 (Homo sapiens, UniProt Q9Y5Y4); test: Radioligand Binding Assay A ([3H]PGD2 filtration binding, HEK-hCRTH2 membranes); conditions: Table A, rated A-D
T1 construct: expressed in transfected cells; host or cells: HEK (human embryonic kidney) cells expressing hCRTH2
T1 sequence (Q9Y5Y4 1-395): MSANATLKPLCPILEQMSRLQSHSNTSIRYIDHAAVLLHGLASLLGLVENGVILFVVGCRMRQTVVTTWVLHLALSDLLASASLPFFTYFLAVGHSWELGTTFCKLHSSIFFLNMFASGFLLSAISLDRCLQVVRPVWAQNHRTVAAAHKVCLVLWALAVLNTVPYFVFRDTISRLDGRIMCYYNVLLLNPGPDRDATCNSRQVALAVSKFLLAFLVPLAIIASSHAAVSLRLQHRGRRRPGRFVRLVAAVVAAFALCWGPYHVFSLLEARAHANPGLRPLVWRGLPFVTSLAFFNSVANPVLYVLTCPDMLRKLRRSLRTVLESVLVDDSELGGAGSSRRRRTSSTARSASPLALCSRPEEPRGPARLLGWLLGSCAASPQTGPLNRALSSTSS
Method: Radioligand binding assays were performed at room temperature in 50 mM Tris-HCl pH 7.4, 1 mM EDTA containing 2 mM MnCl2 and 3.0 nM [^3H]PGD2 (New England Nuclear, Boston, Mass.) (171 Ci mmol^−1), in a final volume of 0.2 ml. Competing ligands were diluted in dimethylsulfoxide (Me2SO) that was kept constant at 1% (v/v) of the final incubation volume. The reaction was initiated by the addition of 8-20 μg of membrane protein prepared from a human embryonic kidney (HEK)-hCRTH2 cell line. Total and non-specific binding were determined in the absence and the presence of 10 μM PGD2, respectively. Under these conditions, specific binding (total minus non-specific) of the radioligand to the receptor reached equilibrium within 50 min and was stable up to 180 min. The reaction was routinely conducted for 60 min at room temperature and terminated by rapid filtration through prewetted (0.3% polyethyleneimine) 96-well printed Filtermate™ (Wallac) using a Tomtec® harvester (Hamden, Conn.). After washing with cold buffer, the filter was dried for 2 minutes in microwave, and Meltilex Scintillator sheet (Wallac) was melted on for 2 min. The radioactivity was measured with Betaplate model 1205 (Wallac).

`O=C(O)CCCCc1cc2cc(C(=O)N3CC[C@@H](c4ccccc4)C3)ccc2nc1-c1ccccc1` [Compound 1i, 2-phenyl-6-[(3(S)-phenyl-1-pyrrolidinyl)carbonyl]-3-quinolinepentanoic acid] and `O=C(O)CCCCc1nc2cc(C(=O)N3CC[C@@H](c4ccccc4)C3)ccc2cc1-c1ccccc1` [Compound 3H, 3-phenyl-7-[(3(S)-phenyl-1-pyrrolidinyl)carbonyl]-2-quinolinepentanoic acid] fall in the same range of Ki: 2.1 to 20 nM for the first, 2.1 to 20 nM for the second.

`O=C(O)CCCCc1cc2cc(C(=O)N[C@@H]3CCCc4ccccc43)ccc2nc1-c1ccccc1` [Compound 1o, 2-phenyl-6-[[(1,2,3,4-tetrahydro-1(R)-naphthalenyl)amino]carbonyl]-3-quinolinepentanoic acid] and `O=C(O)CCCCc1cc2cc(C(=O)N[C@@H]3CCCc4ccccc43)ccc2nc1-c1ccc(F)cc1` [Compound 5G, 2-(4-fluorophenyl)-6-[[(1,2,3,4-tetrahydro-1(R)-naphthalenyl)amino]carbonyl]-3-quinolinepentanoic acid] fall in the same range of Ki: 2.1 to 20 nM for the first, 2.1 to 20 nM for the second.

`Cc1cccc(CNC(=O)c2ccc3nc(-c4ccccc4)c(CCCCC(=O)O)cc3c2)c1` [Compound 2A, 6-[[[(3-methylphenyl)methyl]amino]carbonyl]-2-phenyl-3-quinolinepentanoic acid] and `O=C(O)CCCCc1cc2cc(C(=O)NCc3ccc(Cl)cc3)ccc2nc1-c1ccccc1` [Compound 2B, 6-[[[(4-chlorophenyl)methyl]amino]carbonyl]-2-phenyl-3-quinolinepentanoic acid] fall in the same range of Ki: 2.1 to 20 nM for the first, 2.1 to 20 nM for the second.

`O=C(O)CCCCc1cc2cc(C(=O)NCc3ccc(F)cc3)ccc2nc1-c1ccccc1` [Compound 2C, 6-[[[(4-fluorophenyl)methyl]amino]carbonyl]-2-phenyl-3-quinolinepentanoic acid] and `C[C@@H](CNC(=O)c1ccc2nc(-c3ccc(F)cc3)c(CCCCC(=O)O)cc2c1)c1ccccc1` [Compound 5AB, (R)-5-(2-(4-fluorophenyl)-6-((2-phenylpropyl)carbamoyl)quinolin-3-yl)pentanoic acid] fall in the same range of Ki: 2.1 to 20 nM for the first, 2.1 to 20 nM for the second.

First: O=C(O)CCCCc1cc2cc(C(=O)OCc3ccccc3)ccc2nc1-c1ccccc1 [Compound 2D, 2-phenyl-6-[(phenylmethoxy)carbonyl]-3-quinolinepentanoic acid]
Second: O=C(O)CCCCc1cc2cc(C(=O)NC(c3ccccc3)c3ccccc3)ccc2nc1-c1ccc(F)cc1 [Compound 5AA, 5-(6-(benzhydrylcarbamoyl)-2-(4-fluorophenyl)quinolin-3-yl)pentanoic acid]
The Ki of the first is lower: 0.1 to 2 nM for the first, 2.1 to 20 nM for the second.

First: O=C(O)CCCCc1nc2cc(C(=O)NCc3ccc(OC(F)(F)F)cc3)ccc2cc1-c1ccccc1 [Compound 3, 5-(3-phenyl-7-(4-(trifluoromethoxy)benzylcarbamoyl)quinolin-2-yl)pentanoic acid]
Second: O=C(O)CCCCc1nc2cc(C(=O)NCc3cccc(Cl)c3)ccc2cc1-c1ccccc1 [Compound 4, 5-(7-(3-chlorobenzylcarbamoyl)-3-phenylquinolin-2-yl)pentanoic acid]
The Ki of the first is higher: 2.1 to 20 nM for the first, 0.1 to 2 nM for the second. The second binds more tightly here.

`O=C(O)CCCCc1nc2cc(C(=O)N3CCC(c4ccccc4)CC3)ccc2cc1-c1ccccc1` [Compound 3E, 3-phenyl-7-[(4-phenyl-1-piperidinyl)carbonyl]-2-quinolinepentanoic acid] and `O=C(O)CCCCc1nc2cc(C(=O)N3CC[C@H](c4ccccc4)C3)ccc2cc1-c1ccccc1` [Compound 3i, 3-phenyl-7-[(3(R)-phenyl-1-pynolidinyl)carbonyl]-2-quinolinepentanoic acid] fall in the same range of Ki: 2.1 to 20 nM for the first, 2.1 to 20 nM for the second.

Compared with `C[C@@H](NC(=O)c1ccc2cc(-c3ccccc3)c(CCCCC(=O)O)nc2c1)c1ccc(Cl)cc1` [Compound 3F, 7-[[[1(R)-(4-chlorophenyl)ethyl]amino]carbonyl]-3-phenyl-2-quinolinepentanoic acid], `C[C@H](NC(=O)c1ccc2cc(-c3ccccc3)c(CCCCC(=O)O)nc2c1)c1ccc(Cl)cc1` [Compound 3G, 7-[[[1(S)-(4-chlorophenyl)ethyl]amino]carbonyl]-3-phenyl-2-quinolinepentanoic acid] is higher in Ki: 0.1 to 2 nM for the first, 2.1 to 20 nM for the second. The first binds more tightly here.

Compared with `O=C(O)CCCCc1nc2cc(C(=O)N3CCC[C@@H](c4ccccc4)C3)ccc2cc1-c1ccccc1` [Compound 3J, 3-phenyl-7-[(3(S)-phenyl-1-piperidinyl)carbonyl]-2-quinolinepentanoic acid], `O=C(O)CCCCc1nc2cc(C(=O)N3CCC[C@H](c4ccccc4)C3)ccc2cc1-c1ccccc1` [Compound 3K, 3-phenyl-7-[(3(R)-phenyl-1-piperidinyl)carbonyl]-2-quinolinepentanoic acid] is lower in Ki: 20.1 to 200 nM for the first, 2.1 to 20 nM for the second. The second binds more tightly here.

`O=C(O)CCCCc1nc2cc(C(=O)N3CC(c4ccccc4)C3)ccc2cc1-c1ccccc1` [Compound 3L, 3-phenyl-7-[(3-phenyl-1-azetidinyl)carbonyl]-2-quinolinepentanoic acid] and `C[C@@H](NC(=O)c1ccc2cc(-c3ccccc3)c(CCCCC(=O)O)nc2c1)c1ccc(F)cc1` [Compound 4E, (R)-5-(7-(1-(4-fluorophenyl)ethylcarbamoyl)-3-phenylquinolin-2-yl)pentanoic acid] fall in the same range of Ki: 0.1 to 2 nM for the first, 0.1 to 2 nM for the second.

`C[C@@H](NC(=O)c1ccc2nc(-c3ccc(F)cc3)c(CCCCC(=O)O)cc2c1)c1ccc(Cl)cc1` [Compound 5, 6-[[[1(R)-(4-chlorophenyl)ethyl]amino]carbonyl]-2-(4-fluorophenyl)-3-quinolinepentanoic acid] and `C[C@@H](NC(=O)c1ccc2nc(-c3ccc(F)cc3)c(CCCCC(=O)O)cc2c1)c1ccc(F)cc1` [Compound 5D, 2-(4-fluorophenyl)-6-[[[1(R)-(4-fluorophenyl)ethyl]amino]carbonyl]-3-quinolinepentanoic acid] fall in the same range of Ki: 2.1 to 20 nM for the first, 2.1 to 20 nM for the second.

`C[C@H](CNC(=O)c1ccc2nc(-c3ccc(F)cc3)c(CCCCC(=O)O)cc2c1)c1ccccc1` [Compound 5AC, (S)-5-(2-(4-fluorophenyl)-6-((2-phenylpropyl)carbamoyl)quinolin-3-yl)pentanoic acid] and `C[C@H](NC(=O)c1ccc2nc(-c3ccc(F)cc3)c(CCCCC(=O)O)cc2c1)c1ccc(F)cc1` [Compound 5J, 2-(4-fluorophenyl)-6-[[[1(S)-(4-fluorophenyl)ethyl]amino]carbonyl]-3-quinolinepentanoic acid] fall in the same range of Ki: 2.1 to 20 nM for the first, 2.1 to 20 nM for the second.

`O=C(O)CCCCc1cc2cc(C(=O)N[C@@H]3CCc4ccccc43)ccc2nc1-c1ccc(F)cc1` [Compound 5E, 6-[[(2,3-dihydro-1H-inden-1(R)-yl)amino]carbonyl]-2-(4-fluorophenyl)-3-quinolinepentanoic acid] and `O=C(O)CCCCc1cc2cc(C(=O)N[C@@H]3CCc4ccc(F)cc43)ccc2nc1-c1ccc(F)cc1` [Compound 5F, 6-[[(6-fluoro-2,3-dihydro-1H-inden-1(R)-yl)amino]carbonyl]-2-(4-fluorophenyl)-3-quinolinepentanoic acid] fall in the same range of Ki: 2.1 to 20 nM for the first, 2.1 to 20 nM for the second.

`O=C(O)CCCCc1cc2cc(C(=O)N[C@@H]3CCCc4ccc(F)cc43)ccc2nc1-c1ccc(F)cc1` [Compound 5H, 2-(4-fluorophenyl)-6-[[(7-fluoro-1,2,3,4-tetrahydro-1(R)-naphthalenyl)amino]carbonyl]-3-quinolinepentanoic acid] was tested, and the Ki was 2.1 to 20 nM.

same assay, conditions: values in text

In order of rising Ki:
1. O=C(O)CCCCc1cc2cc(C(=O)N[C@@H]3CCCc4ccccc43)ccc2nc1-c1ccc(F)cc1 [Compound 5G, 2-(4-fluorophenyl)-6-[[(1,2,3,4-tetrahydro-1(R)-naphthalenyl)amino]carbonyl]-3-quinolinepentanoic acid]  2.6 nM
2. O=C(O)CCCCc1nc2cc(C(=O)N3CC[C@@H](c4ccccc4)C3)ccc2cc1-c1ccccc1 [Compound 3H, 3-phenyl-7-[(3(S)-phenyl-1-pyrrolidinyl)carbonyl]-2-quinolinepentanoic acid]  2.7 nM
3. O=C(O)CCCCc1cc2cc(C(=O)N[C@@H]3CCc4ccc(F)cc43)ccc2nc1-c1ccc(F)cc1 [Compound 5F, 6-[[(6-fluoro-2,3-dihydro-1H-inden-1(R)-yl)amino]carbonyl]-2-(4-fluorophenyl)-3-quinolinepentanoic acid]  13.6 nM
